For this data set the following is noted: rabbit, in vivo, sc.

Like-named read-outs stand apart in the source and are kept apart here.

Procedure: For the rabbit model, 2.5-3 kg New Zealand male rabbits were used with 3 rabbits per group. Rabbits were allowed to adapt for 7 days and free access to water and food. Ketamine (40 mg/kg) and Xylazine (5 mg/kg) were used to anesthetize the rabbits. To withdraw blood samples, a 24-gauze Teflon catheter was inserted into the center auricular artery. The catheter was connected to a heparin cap filled with 0.9% saline solution.
Enoxaparin at doses of 3 and 6 mg/kg was given by subcutaneous injection at time 0. Blood samples were collected 0, 3, 5, 10, 15, 30 min, 1, 2, 3, 4, 6, 8, 12 hours after subcutaneous injection and processed as described above. The plasma was collected at indicated times and analyzed for anti-Xa assay as described. Enoxaparin for subcutaneous injection was formulated as a solution in PBS or water at 100 mg/ml concentration and appropriate doses were injected.
An anti-Xa assay was used to monitor plasma LMWH levels. The anti-Xa assay was performed using a modification of the amidolytic method of Teien and Lie (Thrombosis res. 10: 399-410, 1977) with the Coatest heparin test kit by using S-2222 as the chromogenic substrate (Diapharma Group, Inc. OH). […] The concentration of enoxaparin in unknown samples was calculated by comparing readings to the calibration curve which was linear in the range of 0.1-0.7 IU/ml.
Experimental data, expressed in anti-Xa IU/mL, was utilized for non-linear regression curves based on a one-compartment model (Comelli and Fareed, Semin thromb Hemost, 25: 57-61, 1999) by using SigmaPlot program with the method of extended least squares. From the kinetic curves, the following parameters were calculated: the area under curve (AUC expressed in IU*hr*ml^−1), absorption half-life (t1/2 expressed in hr); and half-life of apparent elimination (t1/2e expressed in hr). The AUC (0-t) was calculated using the trapezoidal rule (Rowland and Tozer, Clinical Pharmacokinetics. Concepts and Applications. 459-461, Lea and Febiger, 1989) and extrapolated to infinity (AUC) by dividing the value of the last measured concentration by the elimination rate constant.

enoxaparin: the absorption half-life was 1 to 2 h. For the same substance, under “3 mg/kg”, the “AUC (IU*hr/mL)” value came to 6.27 IU * hr/mL, the Ka came out at 0.40, the Ke came out at 0.35 h⁻¹ and the MRT (AUMC/AUC) was found to be 4.75 h. Under “6 mg/kg”, the “AUC (IU*hr/mL)” value worked out at 13.45 IU * hr/mL, the Ka turned out to be 0.35, the Ke amounted to 0.3 h⁻¹ and the MRT (AUMC/AUC) turned out to be 5.48 h.

The substance dalteparin had an absorption half-life of 1 to 2 h. Also, under “3 mg/kg”, the “AUC (IU*hr/mL)” value came to 6.93 IU*hr/mL, the Ka came out at 0.40, the Ke was determined as 0.33 h⁻¹ and the MRT (AUMC/AUC) was 4.97 h. Also, for the setting “6 mg/kg”, the “AUC (IU*hr/mL)” value worked out at 13.27 IU*hr/mL, the Ka was found to be 0.32, the Ke is 0.27 h⁻¹ and the MRT (AUMC/AUC) is 5.93 h.

These data come from patent US20040087543A1, “Methods and products for mucosal delivery” (priority 2002, published 2004).
